In patent publication US20180370927A1, “MICROBIOCIDAL OXADIAZOLE DERIVATIVES” (SYNGENTA PARTICIPATIONS AG, priority 2015, published 2018):

Columns and labels:
[1] = tested on: Puccinia recondita f. Sp. Tritici; assay: Puccinia recondita f. sp. tritici / wheat / leaf disc curative (brown rust); assay type: in vivo; details: foliar, 200 ppm in the applied formulation, wheat leaf segments, curative (applied 1 day after inoculation), assessed 6 to 8 days after application, read-out: disease control compared to untreated control leaf disks
Procedure, shortened: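 Curative treatment: formulated compound in water was applied 1 day post-inoculation to spore-inoculated wheat cv. Kanzler segments held on agar. Segments stayed at 19° C and 75% relative humidity (12 h photoperiod after application), and disease control relative to untreated checks was assessed 6 to 8 days later.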

[2] = tested on: Puccinia recondita f. Sp. Tritici; assay: Puccinia recondita f. sp. tritici / wheat / leaf disc preventative (brown rust); assay type: in vivo; details: foliar, 200 ppm in the applied formulation, wheat leaf segments, preventative, assessed 7 to 9 days after application, read-out: disease control compared to untreated control leaf disks
Procedure, shortened: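 Wheat cv. Kanzler leaf segments on agar sprayed with formulated compound in water, inoculated with rust spores 1 day later. Incubated at 19° C, 75% rh, 12 h light/12 h dark; percent disease control versus untreated scored 7 to 9 days after application; tested at 200 ppm.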

Phakopsora pachyrhizi = Phakopsora pachyrhizi / soybean / leaf disc preventative (Asian soybean rust); assay type: in vivo; details: foliar, 200 ppm in the applied formulation, soybean leaf disks, assessed 12 to 14 days after application, read-out: disease control compared to untreated control leaf disks
Procedure, shortened: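 Soybean leaf discs on water agar were sprayed with formulated compound diluted in water, then inoculated one day later with spore suspension on the lower leaf surface. Held 24-36 h dark at 20° C., 75% RH, then 12 h light/day; percent disease control versus untreated scored 12 to 14 days after application.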

[3] = tested on: Glomerella lacenarium (Colletotrichum lacenarium); assay: Glomerella lacenarium (Colletotrichum lacenarium) liquid culture / cucumber / preventative (anthracnose); assay type: cell-based; details: 20 ppm in the applied formulation, liquid culture in PDB, 24° C., 3 to 4 days after application, read-out: disease control (inhibition of growth, photometric) compared to untreated control
Procedure, shortened: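 At 20 ppm in the applied formulation, compounds were mixed with fungal spores in potato dextrose broth and held at 24° C. After 3–4 days, photometric growth measurement gave percent antifungal activity relative to untreated control.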

CON(C)C(=O)C(=O)N(Cc1ccc(-c2noc(C(F)(F)F)n2)cc1)C1CC1 [Compound 4.105, N′-cyclopropyl-N-methoxy-N-methyl-N′-[[4-[5-(trifluoromethyl)-1,2,4-oxadiazol-3-yl]phenyl]methyl] oxamide]
≥ 80%: pest or weed control at 200 ppm [1] | pest or weed control at 200 ppm [2] | pest or weed control at 200 ppm (Phakopsora pachyrhizi) | inhibition at 20 ppm [3]

CCC(=O)C(=O)N(CC)Cc1ccc(-c2noc(C(F)(F)F)n2)cc1 [Compound 1.99, N-ethyl-2-oxo-N-[[4-[5-(trifluoromethyl)-1,2,4-oxadiazol-3-yl]phenyl]methyl]butanamide]
≥ 80%: pest or weed control at 200 ppm [1] | pest or weed control at 200 ppm [2] | pest or weed control at 200 ppm (Phakopsora pachyrhizi) | inhibition at 20 ppm [3]

CON(Cc1ccc(-c2noc(C(F)(F)F)n2)cc1)C(=O)C(=O)C(C)(C)C [Compound 1.74, N-methoxy-3,3-dimethyl-2-oxo-N-[[4-[5-(trifluoromethyl)-1,2,4-oxadiazol-3-yl]phenyl]methyl]butanamide]
≥ 80%: pest or weed control at 200 ppm [1] | pest or weed control at 200 ppm [2] | pest or weed control at 200 ppm (Phakopsora pachyrhizi) | inhibition at 20 ppm [3]

CCN(Cc1ccc(-c2noc(C(F)(F)F)n2)cc1)C(=O)C(=O)NC [Compound 4.101, N′-ethyl-N-methyl-N′-[[4-[5-(trifluoromethyl)-1,2,4-oxadiazol-3-yl]phenyl]methyl] oxamide]
≥ 80%: pest or weed control at 200 ppm [1] | pest or weed control at 200 ppm [2] | pest or weed control at 200 ppm (Phakopsora pachyrhizi) | inhibition at 20 ppm [3]

C=CCN(Cc1ccc(-c2noc(C(F)(F)F)n2)cc1)C(=O)C(N)=O [Compound 4.26, N′-allyl-N′-[[4-[5-(trifluoromethyl)-1,2,4-oxadiazol-3-yl]phenyl]methyl] oxamide]
≥ 80%: pest or weed control at 200 ppm [1] | pest or weed control at 200 ppm [2] | pest or weed control at 200 ppm (Phakopsora pachyrhizi) | inhibition at 20 ppm [3]

CCN(Cc1ccc(-c2noc(C(F)(F)F)n2)cc1)C(=O)C(N)=O [Compound 4.28, N′-ethyl-N′-[[4-[5-(trifluoromethyl)-1,2,4-oxadiazol-3-yl]phenyl]methyl] oxamide]
≥ 80%: pest or weed control at 200 ppm [1] | pest or weed control at 200 ppm [2] | pest or weed control at 200 ppm (Phakopsora pachyrhizi) | inhibition at 20 ppm [3]

CCC(=O)C(=O)N(C)Cc1ccc(-c2noc(C(F)(F)F)n2)cc1 [Compound 1.98, N-methyl-2-oxo-N-[[4-[5-(trifluoromethyl)-1,2,4-oxadiazol-3-yl]phenyl]methyl]butanamide]
≥ 80%: pest or weed control at 200 ppm [1] | pest or weed control at 200 ppm [2] | pest or weed control at 200 ppm (Phakopsora pachyrhizi) | inhibition at 20 ppm [3]

CC(=O)C(=O)N(C)Cc1ccc(-c2noc(C(F)(F)F)n2)cc1 [Compound 1.20, N-methyl-2-oxo-N-[[4-[5-(trifluoromethyl)-1,2,4-oxadiazol-3-yl]phenyl]methyl]propanamide]
≥ 80%: pest or weed control at 200 ppm [1] | pest or weed control at 200 ppm [2] | pest or weed control at 200 ppm (Phakopsora pachyrhizi) | inhibition at 20 ppm [3]

CC(C)C(=O)C(=O)N(Cc1ccc(-c2noc(C(F)(F)F)n2)cc1)C1CC1 [Compound 1.97, N-cyclopropyl-3-methyl-2-oxo-N-[[4-[5-(trifluoromethyl)-1,2,4-oxadiazol-3-yl]phenyl]methyl]butanamide]
≥ 80%: pest or weed control at 200 ppm [1] | pest or weed control at 200 ppm [2] | pest or weed control at 200 ppm (Phakopsora pachyrhizi) | inhibition at 20 ppm [3]

CCC(=O)C(=O)N(Cc1ccc(-c2noc(C(F)(F)F)n2)cc1)OC [Compound 1.89, N-methoxy-2-oxo-N-[[4-[5-(trifluoromethyl)-1,2,4-oxadiazol-3-yl]phenyl]methyl]butanamide]
≥ 80%: pest or weed control at 200 ppm [1] | pest or weed control at 200 ppm [2] | pest or weed control at 200 ppm (Phakopsora pachyrhizi) | inhibition at 20 ppm [3]

CC(C)(C)NC(=O)C(=O)NCc1ccc(-c2noc(C(F)(F)F)n2)cc1 [Compound 4.56, N′-tert-butyl-N-[[4-[5-(trifluoromethyl)-1,2,4-oxadiazol-3-yl]phenyl]methyl] oxamide]
≥ 80%: pest or weed control at 200 ppm [1] | pest or weed control at 200 ppm [2] | pest or weed control at 200 ppm (Phakopsora pachyrhizi) | inhibition at 20 ppm [3]

O=C(NCc1c(F)cc(-c2noc(C(F)(F)F)n2)cc1F)C(=O)c1cccs1 [Compound 1.70, N-[[2,6-difluoro-4-[5-(trifluoromethyl)-1,2,4-oxadiazol-3-yl]phenyl]methyl]-2-oxo-2-(2-thienyl)acetamide]
≥ 80%: pest or weed control at 200 ppm [1] | pest or weed control at 200 ppm [2] | pest or weed control at 200 ppm (Phakopsora pachyrhizi) | inhibition at 20 ppm [3]

CC(C)C(=O)C(=O)N(C)Cc1ccc(-c2noc(C(F)(F)F)n2)cc1 [Compound 1.95, N,3-dimethyl-2-oxo-N-[[4-[5-(trifluoromethyl)-1,2,4-oxadiazol-3-yl]phenyl]methyl]butanamide]
≥ 80%: pest or weed control at 200 ppm [1] | pest or weed control at 200 ppm [2] | pest or weed control at 200 ppm (Phakopsora pachyrhizi) | inhibition at 20 ppm [3]

CN(C)C(=O)C(=O)NCc1c(F)cc(-c2noc(C(F)(F)F)n2)cc1F [Compound 4.98, N-[[2,6-difluoro-4-[5-(trifluoromethyl)-1,2,4-oxadiazol-3-yl]phenyl]methyl]-N′,N′-dimethyl-oxamide]
≥ 80%: pest or weed control at 200 ppm [1] | pest or weed control at 200 ppm [2] | pest or weed control at 200 ppm (Phakopsora pachyrhizi) | inhibition at 20 ppm [3]

CO/N=C(/C)C(=O)N(Cc1ccc(-c2noc(C(F)(F)F)n2)cc1)OC [Compound 2.11, (2Z)-N-methoxy-2-methoxyimino-N-[[4-[5-(trifluoromethyl)-1,2,4-oxadiazol-3-yl]phenyl]methyl] propanamide]
≥ 80%: pest or weed control at 200 ppm [1] | pest or weed control at 200 ppm [2] | pest or weed control at 200 ppm (Phakopsora pachyrhizi) | inhibition at 20 ppm [3]

CN(C)C(=O)C(=O)NCc1ccc(-c2noc(C(F)(F)F)n2)cc1F [Compound 4.92, N-[[2-fluoro-4-[5-(trifluoromethyl)-1,2,4-oxadiazol-3-yl]phenyl]methyl]-N',N'-dimethyl-oxamide]
≥ 80%: pest or weed control at 200 ppm [1] | pest or weed control at 200 ppm [2] | pest or weed control at 200 ppm (Phakopsora pachyrhizi) | inhibition at 20 ppm [3]

CC(C)(C)C(=O)C(=O)NCc1ccc(-c2noc(C(F)(F)F)n2)c(F)c1 [Compound 1.45, N-[[3-fluoro-4-[5-(trifluoromethyl)-1,2,4-oxadiazol-3-yl]phenyl]methyl]-3,3-dimethyl-2-oxo-butanamide]
≥ 80%: pest or weed control at 200 ppm [1] | pest or weed control at 200 ppm [2] | pest or weed control at 200 ppm (Phakopsora pachyrhizi) | inhibition at 20 ppm [3]
